Laboratory results reported in patent US10213447B2, “Preparation of acetate salt compositions of pharmaceutical agents” (The Curators of the University of Missouri, priority 2015, dated 2019).
Converted amounts (≈) assume the structure as drawn.

How the values were obtained:
[1] = Particle size, zeta potential and polydispersity index by dynamic light scattering; format: physicochemical
Protocol: Fresh NPs were re-suspended by sonication (Qsonica LLC, Newtown, Conn., USA) in deionized water, or SA coated NPs were dissolved in deionized water and the particle size, the zeta potential, and polydispersity index (PDI) was measured through dynamic light scattering (Zetasizer Nano ZS, Malvern Instruments Ltd, Worcestershire, UK) at 25° C. Samples with polydispersity index (PDI)<0.05 were considered monodispersed according to the National Institute guidelines (7).

[2] = cited from earlier work
[3] = cited from earlier work; remark: listed apart in the source
[4] = in vivo; cited from earlier work
[5] = Meng, et al.; cited from earlier work
[6] = cited from earlier work; remark: listed apart in the source
physchem = conditions: pH 7, aqueous buffer, thermodynamic from solid
Protocol: Sodium hydroxide was added raising the pH of the solution to 12.30. […] After the period of about 24 hours elapsed, the solution was freeze dried. The amount of DXT that dissolved into solution from each DXT composition was measured by determining the amount of DXT in the supernatant, as measured by UV spectroscopy at 230 nm after removing undissolved material by centrifugation. […] Native DXT (uncoated) dissolved into acetate buffer at the same pH was used as a control.

**Q.** Which ZP ([1]; as worded) does the source give for CC(=O)[O-].[Na+] [pure salt, sodium acetate] here?
**A.** Its ZP is 0-3 mV.

**Q.** And the “Zeta potential of pure salt (ev)” value ([1]; pure salt)?
**A.** Its value is −4.87 ± 0.64 ev.

**Q.** For C[C@H](Cn1cnc2c(N)ncnc21)OCP(=O)(O)O [TFV, tenofovir], which Solubility in water [2] is on record?
**A.** The Solubility in water was 13400 µg/mL (≈ 46700 µM).

**Q.** What about the “log P” value [3] of the same compound?
**A.** Its value is −1.1.

**Q.** What about the Oral bioavailability [4] of the same compound?
**A.** Its Oral bioavailability is 25-39%.

**Q.** What about the “TFV encapsulated in chitosan NPs (EE %)” value [5] of the same compound?
**A.** The value was 5.83%.

**Q.** With CC(=O)O[C@@]12CO[C@@H]1C[C@H](O)[C@@]1(C)C(=O)[C@H](O)C3=C(C)[C@@H](OC(=O)[C@H](O)[C@@H](NC(=O)OC(C)(C)C)c4ccccc4)C[C@@](O)([C@@H](OC(=O)c4ccccc4)[C@H]21)C3(C)C [uncoated DXT, Docetaxel, reference compound] as the compound, how does the pKa [6] read?
**A.** The pKa was about 10.96.

**Q.** And the solubility (physchem)?
**A.** Its solubility is about 11.8 µg/mL (≈ 14.6 µM).

**Q.** With O=P(O)(O)OP(=O)(O)OP(=O)(O)O [Triphosphoric acid] as the compound, how does the “pKa (fifth listed)” value ([6]; fifth dissociation, printed pKa) read?
**A.** Its value is 8.5.

**Q.** What about the pKa1 ([6]; first dissociation) of the same compound?
**A.** The pKa1 was 1.

**Q.** And the pKa4 ([6]; fourth dissociation)?
**A.** The pKa4 was 3.7.

**Q.** What about the “pKa (second listed)” value ([6]; second dissociation, printed pKa) of the same compound?
**A.** Its value is 2.2.

**Q.** And the pKa3 ([6]; third dissociation)?
**A.** The pKa3 was 2.3.
